Results published in the NIST ThermoML archive (doi:10.1016/j.tca.2015.08.007).
Numbers after ± are expanded uncertainties.

Triple point temperature (Liquid crystal of unknown type) | SMILES | Triple point temperature (Nematic liquid crystal)
385.85 ± 2 K | CCCCCCCCCCOc1cc(C=NNC(=O)c2ccc(N=Cc3cc(OCCCCCCCCCC)c(OCCCCCCCCCC)c(OCCCCCCCCCC)c3)cc2)cc(OCCCCCCCCCC)c1OCCCCCCCCCC | –
– | CCCCCOc1ccc(-c2ccc(C#N)cc2)cc1 [4'-pentoxy-4-cyanobiphenyl] | 339.75 ± 2 K
